This is an account of results in PMC11413503, “SCR‐7952, a highly selective MAT2A inhibitor, demonstrates synergistic antitumor activities in combination with the S‐adenosylmethionine‐competitive or the methylthioadenosine‐cooperative protein arginine methyltransferase 5 inhibitors in methylthioadenosine phosphorylase‐deleted tumors” (MedComm, 2024).

One series concerns HCT116 MTAP−/− cells. The series can be described thus: Combination proliferation assay with PRMT5 inhibitors (Bliss model). It is filed as cell-based. The following applies: 8 days. The method, then: Cells were plated in 96‐well cell culture plates and allowed to attach overnight at 37°C in 5% CO2. […] The final concentration of DMSO was 0.1% in media. Cell proliferation was measured using CellTiter‐Glo Cell Viability Assay (Promega). The IC50 values were calculated using the GraphPad Prism 9. Drug combination effects were analyzed using Combenefit software.[45]

In a further series the target is ROCK1 (Homo sapiens, UniProt Q13464). The series can be described thus: Mini-profiling panel, kinase. The series is classed as biochemical. The following applies: Kinases; read-out: ROCK1 Inhibitor IC50.
For a further series, the system named is MAT2A protein expression. The series can be described thus: Immunoblot of MAT2A protein expression. It is filed as cell-based. The following applies: 96 h, HCT116 MTAP−/− and WT cells. Background: Immunoblotting shows a protein as a band on a membrane.
Another series has as its target AChE (Homo sapiens, UniProt P22303). The series can be described thus: Mini-profiling panel, non-kinase enzyme. It is filed as biochemical. Conditions: Non-Kinase Enzymes; read-out: AChE Inhibitor IC50.
Another series deals with AR (Homo sapiens, UniProt P10275). The series can be described thus: Mini-profiling panel, nuclear hormone receptor. The series is classed as cell-based. The method, then:
Further insight into selectivity was evaluated in a functional panel of 47 representative targets closely related to human life activities, including G protein‐coupled receptors, transporters, ion channels, kinases, nuclear hormone receptor targets, and nonkinase enzymes (Table S3).

A short description of series [1]: Plasma pharmacokinetics after multiple administration in xenograft mice. Conditions: SCR-7952 1.0 mg/kg. It is filed as in vivo.
The target in the next series is PDE4D2 (Homo sapiens, UniProt Q08499). The series can be described thus: Mini-profiling panel, non-kinase enzyme. The series is classed as biochemical. The following applies: Non-Kinase Enzymes; read-out: PDE4D2 Inhibitor IC50.
In another series the test system is HCT116 MTAP−/− xenograft. The series can be described thus: Xenograft combination treatment study. The following applies: SCR-7952 0.3 mg/kg alone. It is filed as in vivo, mice. The method, then:
Subcutaneous injections of HCT116 MTAP ^−/− cells were performed (5 × 10^6 cells in 100 µL) into Nu/Nu female mice. Mice were observed daily for the development of tumors. Six days after tumor implantation, mice were randomly distributed into different groups. SCR‐7952, AG‐270, JNJ‐64619178, or vehicle (water with 5% N‐methylpyrrolidone and 10% solutol HS‐15) were daily administrated by oral gavage. Tumor volumes and body weights were recorded three times per week. Tumor volumes were measured in two dimensions using a caliper, and the volume was expressed in mm^3 using the formula: V = (L × W × W)/2, where V is tumor volume, L is tumor length (the longest tumor dimension), and W is tumor width (perpendicular to L). The tumor growth inhibition rate (TGI%) of each dosing group was calculated according to the following formula: %TGI = (1 − (V t(treatment group) − V 0(treatment group))/(V t(vehicle group) − V 0(vehicle group))) × 100%, where V t is average tumor volume of a dosing group on a specific day, V 0 is average tumor volume of a dosing group on the initial day. At the end of the study, plasma and tumor tissues were collected and stored at −80°C for further measurement.

The subject of the next series is SDMA. The series can be described thus: Immunoblot of SDMA (PRMT5-dependent mark). The series is classed as cell-based. The following applies: 96 h, HCT116 MTAP−/− cells.
For another series, the target named is INSR (Homo sapiens, UniProt P06213). The series can be described thus: Mini-profiling panel, kinase. The series is classed as biochemical. Conditions: Kinases; read-out: INSR Inhibitor IC50.

The structures appear in SMILES notation.

AR, sequence (P10275 whole entry): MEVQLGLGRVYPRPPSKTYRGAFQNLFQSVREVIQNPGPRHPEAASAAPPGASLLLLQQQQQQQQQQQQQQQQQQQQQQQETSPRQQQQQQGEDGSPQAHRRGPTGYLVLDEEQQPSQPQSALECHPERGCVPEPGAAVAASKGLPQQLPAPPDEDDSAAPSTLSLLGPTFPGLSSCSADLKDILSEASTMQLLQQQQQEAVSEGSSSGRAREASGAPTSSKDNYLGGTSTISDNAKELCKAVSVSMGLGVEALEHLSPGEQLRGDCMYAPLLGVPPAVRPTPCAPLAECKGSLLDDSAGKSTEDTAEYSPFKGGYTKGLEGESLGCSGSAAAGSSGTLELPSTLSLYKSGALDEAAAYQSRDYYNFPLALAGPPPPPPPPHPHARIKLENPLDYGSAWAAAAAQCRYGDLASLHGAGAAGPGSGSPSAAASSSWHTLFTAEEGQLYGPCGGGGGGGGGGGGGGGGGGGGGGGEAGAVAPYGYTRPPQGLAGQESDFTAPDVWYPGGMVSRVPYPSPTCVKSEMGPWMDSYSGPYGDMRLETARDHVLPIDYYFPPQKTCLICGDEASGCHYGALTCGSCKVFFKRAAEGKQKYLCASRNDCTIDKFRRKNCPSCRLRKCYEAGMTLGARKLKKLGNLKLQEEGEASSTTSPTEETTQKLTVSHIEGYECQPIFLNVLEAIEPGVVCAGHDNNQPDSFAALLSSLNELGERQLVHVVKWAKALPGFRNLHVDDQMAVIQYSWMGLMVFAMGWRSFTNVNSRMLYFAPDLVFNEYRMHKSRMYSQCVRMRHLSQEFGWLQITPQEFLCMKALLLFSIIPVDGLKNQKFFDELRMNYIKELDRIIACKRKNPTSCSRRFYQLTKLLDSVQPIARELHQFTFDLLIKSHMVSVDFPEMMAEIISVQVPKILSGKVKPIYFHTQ
ROCK1, sequence (Q13464 whole entry, species assumed): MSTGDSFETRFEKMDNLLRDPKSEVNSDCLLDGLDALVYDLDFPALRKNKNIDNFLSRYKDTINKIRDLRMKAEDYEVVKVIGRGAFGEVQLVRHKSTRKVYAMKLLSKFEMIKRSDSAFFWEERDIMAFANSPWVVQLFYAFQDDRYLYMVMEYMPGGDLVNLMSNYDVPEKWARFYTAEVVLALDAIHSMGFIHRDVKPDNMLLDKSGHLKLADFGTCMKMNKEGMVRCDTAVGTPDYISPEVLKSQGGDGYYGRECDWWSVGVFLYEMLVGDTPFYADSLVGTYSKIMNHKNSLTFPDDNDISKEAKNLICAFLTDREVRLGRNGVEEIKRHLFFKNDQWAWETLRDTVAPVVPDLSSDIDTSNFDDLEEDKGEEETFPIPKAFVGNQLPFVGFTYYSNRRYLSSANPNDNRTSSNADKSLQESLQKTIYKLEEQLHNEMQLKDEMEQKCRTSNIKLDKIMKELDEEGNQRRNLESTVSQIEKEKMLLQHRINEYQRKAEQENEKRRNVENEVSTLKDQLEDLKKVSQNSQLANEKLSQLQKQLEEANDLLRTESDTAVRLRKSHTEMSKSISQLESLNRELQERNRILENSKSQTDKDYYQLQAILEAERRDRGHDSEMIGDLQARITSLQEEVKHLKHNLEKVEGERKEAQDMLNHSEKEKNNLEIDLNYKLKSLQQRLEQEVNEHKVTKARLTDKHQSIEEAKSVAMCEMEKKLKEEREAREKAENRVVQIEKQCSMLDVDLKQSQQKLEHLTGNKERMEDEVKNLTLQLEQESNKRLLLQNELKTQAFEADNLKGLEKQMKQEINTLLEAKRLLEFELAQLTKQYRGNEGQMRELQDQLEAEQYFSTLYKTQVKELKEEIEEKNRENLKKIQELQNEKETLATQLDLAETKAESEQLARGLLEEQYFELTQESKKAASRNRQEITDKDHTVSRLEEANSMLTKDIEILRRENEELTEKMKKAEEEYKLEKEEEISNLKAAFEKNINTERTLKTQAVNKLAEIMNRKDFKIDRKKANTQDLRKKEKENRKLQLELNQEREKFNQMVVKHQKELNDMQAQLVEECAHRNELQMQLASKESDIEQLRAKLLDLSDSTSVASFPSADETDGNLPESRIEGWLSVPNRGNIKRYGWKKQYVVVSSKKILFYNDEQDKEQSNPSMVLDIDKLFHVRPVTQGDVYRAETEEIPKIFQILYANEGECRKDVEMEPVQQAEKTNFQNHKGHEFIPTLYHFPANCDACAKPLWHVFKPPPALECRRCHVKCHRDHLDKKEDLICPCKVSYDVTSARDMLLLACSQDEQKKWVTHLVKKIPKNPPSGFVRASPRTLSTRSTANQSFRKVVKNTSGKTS
INSR, sequence (P06213 28-1382, species assumed): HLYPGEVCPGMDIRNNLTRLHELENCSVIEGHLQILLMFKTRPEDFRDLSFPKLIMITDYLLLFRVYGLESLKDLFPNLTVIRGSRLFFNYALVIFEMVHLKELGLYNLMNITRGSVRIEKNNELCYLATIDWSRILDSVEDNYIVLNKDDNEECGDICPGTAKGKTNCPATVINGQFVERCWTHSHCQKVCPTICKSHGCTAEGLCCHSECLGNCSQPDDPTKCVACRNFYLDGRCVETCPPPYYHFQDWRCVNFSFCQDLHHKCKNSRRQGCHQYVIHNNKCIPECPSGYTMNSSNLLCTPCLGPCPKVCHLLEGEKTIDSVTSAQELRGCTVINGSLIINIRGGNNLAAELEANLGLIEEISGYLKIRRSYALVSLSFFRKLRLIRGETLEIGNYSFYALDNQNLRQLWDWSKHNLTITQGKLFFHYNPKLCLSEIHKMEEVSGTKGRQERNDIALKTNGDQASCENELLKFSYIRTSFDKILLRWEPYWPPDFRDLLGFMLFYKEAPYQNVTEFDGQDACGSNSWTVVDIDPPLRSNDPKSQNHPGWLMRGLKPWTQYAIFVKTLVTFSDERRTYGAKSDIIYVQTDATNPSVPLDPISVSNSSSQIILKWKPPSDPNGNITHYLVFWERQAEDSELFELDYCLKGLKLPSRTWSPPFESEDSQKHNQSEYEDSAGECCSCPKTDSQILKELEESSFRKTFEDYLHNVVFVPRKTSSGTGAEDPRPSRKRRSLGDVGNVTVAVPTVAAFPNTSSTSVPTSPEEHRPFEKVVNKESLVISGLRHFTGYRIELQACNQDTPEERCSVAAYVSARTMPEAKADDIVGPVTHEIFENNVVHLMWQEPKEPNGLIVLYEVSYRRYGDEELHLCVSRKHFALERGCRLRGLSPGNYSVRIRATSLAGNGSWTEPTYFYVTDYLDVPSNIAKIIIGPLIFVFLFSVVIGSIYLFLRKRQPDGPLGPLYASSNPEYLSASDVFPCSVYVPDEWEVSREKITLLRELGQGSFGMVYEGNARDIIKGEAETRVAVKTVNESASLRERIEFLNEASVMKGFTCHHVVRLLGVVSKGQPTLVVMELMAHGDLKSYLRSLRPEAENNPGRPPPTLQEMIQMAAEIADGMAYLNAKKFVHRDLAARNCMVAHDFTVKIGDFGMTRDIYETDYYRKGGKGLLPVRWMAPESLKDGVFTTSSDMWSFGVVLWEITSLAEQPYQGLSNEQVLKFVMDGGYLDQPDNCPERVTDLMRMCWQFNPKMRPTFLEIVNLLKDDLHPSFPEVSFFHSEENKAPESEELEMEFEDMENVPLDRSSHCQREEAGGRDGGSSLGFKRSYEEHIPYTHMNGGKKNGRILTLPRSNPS
AChE, sequence (P22303 32-614): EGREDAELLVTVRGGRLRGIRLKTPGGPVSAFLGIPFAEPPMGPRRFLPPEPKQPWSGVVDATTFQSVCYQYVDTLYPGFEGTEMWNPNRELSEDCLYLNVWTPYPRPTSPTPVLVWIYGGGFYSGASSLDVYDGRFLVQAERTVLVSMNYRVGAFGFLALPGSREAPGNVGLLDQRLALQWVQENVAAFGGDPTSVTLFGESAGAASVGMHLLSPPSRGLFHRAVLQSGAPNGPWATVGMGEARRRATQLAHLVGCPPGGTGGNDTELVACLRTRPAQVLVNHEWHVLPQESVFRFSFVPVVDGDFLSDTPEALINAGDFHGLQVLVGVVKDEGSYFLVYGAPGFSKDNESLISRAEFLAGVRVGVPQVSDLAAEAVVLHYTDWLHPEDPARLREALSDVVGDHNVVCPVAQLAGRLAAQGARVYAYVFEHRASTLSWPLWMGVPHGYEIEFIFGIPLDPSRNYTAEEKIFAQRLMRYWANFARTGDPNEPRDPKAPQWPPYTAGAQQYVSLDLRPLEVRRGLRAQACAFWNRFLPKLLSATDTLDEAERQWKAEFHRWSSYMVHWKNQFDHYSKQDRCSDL
PDE4D2, sequence (Q08499 303-809 limits assumed): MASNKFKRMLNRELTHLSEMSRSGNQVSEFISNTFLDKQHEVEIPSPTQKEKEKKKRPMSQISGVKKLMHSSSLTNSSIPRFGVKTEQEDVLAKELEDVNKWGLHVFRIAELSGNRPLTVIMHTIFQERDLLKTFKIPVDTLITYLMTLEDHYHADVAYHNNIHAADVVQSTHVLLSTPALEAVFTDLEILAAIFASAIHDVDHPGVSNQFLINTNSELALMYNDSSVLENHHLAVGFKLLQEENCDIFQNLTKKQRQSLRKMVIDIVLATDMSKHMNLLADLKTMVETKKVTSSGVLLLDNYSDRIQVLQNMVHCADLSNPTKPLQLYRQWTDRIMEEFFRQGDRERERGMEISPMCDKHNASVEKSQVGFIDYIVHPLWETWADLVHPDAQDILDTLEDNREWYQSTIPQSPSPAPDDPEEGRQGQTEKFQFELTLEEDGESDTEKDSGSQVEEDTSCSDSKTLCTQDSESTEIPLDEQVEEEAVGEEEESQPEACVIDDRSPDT

Consider `Cn1cnc2c(=O)n(-c3cccnc3C3CC3)c3cc(Cl)ccc3c21` [SCR‐7952, 7‐chloro‐5‐(2‐cyclopropylpyridin‐3‐yl)‐1‐methyl‐1,5‐dihydro‐4H‐imidazo[4,5‐c]quinolin‐4‐one], for which the “interaction on cell growth in combination with JNJ-64619178” value in the series with HCT116 MTAP−/− cells is recorded as “synergistic interactions”. In addition, the “interaction on cell growth in combination with MRTX-1719” value in the series with HCT116 MTAP−/− cells is “synergistic interactions”. Besides, the “synergistic effect in combination with GSK3326595” value in the series with HCT116 MTAP−/− cells is on record as “much weaker”. For the same molecule, the IC50 on ROCK1, on AChE, against AR, on PDE4D2 and at INSR was more than 10 µM throughout. Further, in the series on MAT2A protein expression, the “expression of MAT2A protein” value was “upregulated”. For the same molecule, the EC50 on AR was more than 10 µM. The AUC(0-t) in [1] (Nu/Nu, mouse, oral, plasma, HCT116 MTAP−/− xenograft mice, read-out: AUC0-24h total) stood at 15.8 µg·h/mL. Besides, the AUC0-24h free drug in series [1] (calculated) is 1.442 µg·h/mL. Moreover, the TGI with HCT116 MTAP−/− xenograft was 55.0%. Besides, the “SDMA level (immunoblot)” value with SDMA is listed as “Significant dose‐dependent reduction”.

What is called IC50 is the point on the concentration scale where inhibition reaches its midpoint. One may read the EC50 as the midpoint of the concentration-response curve. One may read the TGI as the reduction of tumour growth relative to the control group.
